Experimental data taken from patent US8669257B2, “Phenazine derivatives and uses thereof as potassium channel modulators” (The Johns Hopkins University, priority 2007, dated 2014).
“Also recorded” adds a separate entry of the source.

What was measured:
[1] = test system: EGFP-NFATc3 nuclear translocation; test: NFAT nuclear translocation in Jurkat T-cells stimulated by ionomycin; type: cell-based, human; details: 1 μM ionomycin
[2] = test system: calcium influx in Jurkat T-cells; test: Calcium imaging assay: store-depletion induced calcium influx in Jurkat T-cells; type: cell-based, human; details: thapsigargin then 2 mM Ca2+; clofazimine preincubated 5 min
Procedure: JurkaT-cells were attached to L-lysine-coated glass dishes (MatTek). Cells were loaded with fura-2-AM (Invitrogen_F-1201) for 45 min before they were washed sequentially with growth medium and Ca^2+-free HBSS. Fluorescence excitation wavelengths were set at 350 and 380 nm, respectively, on a Zeiss Axiovert 200M microscope while emission wavelength was set at 510 nm. Changes in intracellular calcium concentrations were determined by fluorescence intensity ratio ([…]/F380).

human Kv1.5 = target: T1, human Kv1.5 (Homo sapiens, UniProt P22460); test: Patch-clamp of heterologous human Kv1.5 expressed in MEL cells; type: cell-based
T1 construct: expressed in transfected cells; host or cells: MEL cells
T1 sequence (P22460 whole entry): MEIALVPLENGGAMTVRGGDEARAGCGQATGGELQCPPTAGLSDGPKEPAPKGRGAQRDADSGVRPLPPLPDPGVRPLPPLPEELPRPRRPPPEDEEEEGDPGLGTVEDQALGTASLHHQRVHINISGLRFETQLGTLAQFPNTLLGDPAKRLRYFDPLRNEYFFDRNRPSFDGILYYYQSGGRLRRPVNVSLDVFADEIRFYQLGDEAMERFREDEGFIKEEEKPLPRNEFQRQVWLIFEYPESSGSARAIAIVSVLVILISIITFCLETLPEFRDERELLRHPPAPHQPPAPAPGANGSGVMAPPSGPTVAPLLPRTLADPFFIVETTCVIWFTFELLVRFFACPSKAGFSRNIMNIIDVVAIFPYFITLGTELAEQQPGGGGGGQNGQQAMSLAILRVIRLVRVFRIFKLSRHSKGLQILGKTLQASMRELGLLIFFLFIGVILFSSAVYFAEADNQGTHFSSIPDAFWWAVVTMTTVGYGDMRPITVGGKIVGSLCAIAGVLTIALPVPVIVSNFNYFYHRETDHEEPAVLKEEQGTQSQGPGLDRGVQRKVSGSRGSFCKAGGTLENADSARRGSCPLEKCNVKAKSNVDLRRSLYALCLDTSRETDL
Procedure: Patch pipettes, pulled from glass capillaries (inner diameter 1.5 mm, Kimble products) with a horizontal puller (Sutter instruments, Modell P-97), were fire-polished, and had resistances between 2 and 4 MOhm. Patch-clamp experiments were performed in the tight-seal whole-cell configuration at room temperature (22-24° C.). High-resolution current recordings were acquired by a computer-based patch-clamp amplifier system (EPC-9, HEKA). Immediately following establishment of the whole-cell configuration, every two seconds voltage ramps of 50 ms duration spanning the voltage range of −100 to +100 mV for Jurkat T-cells and −150 to +150 mV for HEK293 were delivered from a holding potential (Vh) of −70 mV for Jurkats and 0 mV for HEK293 cells over a period of 300-600 s. […] Capacitive currents and series resistance were determined and corrected before each voltage ramp using the automatic capacitance compensation of the EPC-9. […] Kv1.3 currents in Jurkat T-cells were measured at +80 mV. Heterologously expressed Kv1.1, Kv1.2, Kv1.3, Kv1.5 and Kv3.1 were assessed at +80 mV except in Figure S7, where currents were additionally measured at the more physiological voltage of 0 mV. CRAC currents in HEK293 cells were assessed at −80 mV. […]

calcineurin = test: Calcineurin enzymatic activity in vitro; type: biochemical; details: substrates para-nitrophenylphosphate or immunoprecipitated NFATc2
[3] = test system: mouse skin or heart transplant; test: Mouse skin or heart transplant models (initial experiments); type: in vivo
[4] = target: calcium-activated IKCa1 potassium channel (Homo sapiens, UniProt O15554); test: Activity of IKCa1 channel (data not shown); type: cell-based; details: up to 10 μM
calcium-activated IKCa1 potassium channel, sequence (O15554 whole entry): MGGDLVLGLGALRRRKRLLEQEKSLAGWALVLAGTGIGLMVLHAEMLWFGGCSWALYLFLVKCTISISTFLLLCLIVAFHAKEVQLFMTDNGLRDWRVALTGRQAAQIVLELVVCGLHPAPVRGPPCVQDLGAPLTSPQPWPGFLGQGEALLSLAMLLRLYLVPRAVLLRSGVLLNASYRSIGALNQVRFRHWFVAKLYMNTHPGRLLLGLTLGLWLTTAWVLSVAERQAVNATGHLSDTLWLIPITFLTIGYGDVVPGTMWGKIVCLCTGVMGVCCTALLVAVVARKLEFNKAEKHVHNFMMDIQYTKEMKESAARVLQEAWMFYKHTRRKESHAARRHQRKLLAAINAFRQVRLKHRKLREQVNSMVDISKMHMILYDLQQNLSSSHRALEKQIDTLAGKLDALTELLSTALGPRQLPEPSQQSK

CC(C)/N=c1\cc2n(-c3ccc(Cl)cc3)c3ccccc3nc-2cc1Nc1ccc(Cl)cc1 [clofazimine, Clofazimine]
effect on NFAT nuclear translocation [1]: blocked the ionomycin-induced nuclear translocation | effect on NFAT nuclear translocation ([1]; listed as Clofazimine): inhibits EGFP-NFATc3 nuclear translocation | effect on calcium entry [2]: inhibited by clofazimine in a heterogeneous fashion; also recorded: only about a quarter of cells are responsive | block of current, human Kv1.5 (human Kv1.5; 10 μM): less than 50% | IC50 (human Kv1.5; inferred from block at 10 μM): > 10 µM | effect on enzymatic activity of calcineurin in vitro (calcineurin): no effect on the enzymatic activity; also recorded: does not inhibit the protein phosphatase activity | beneficial effects in mouse skin or heart transplant models [3]: failed to show any beneficial effects | effect on IKCa1 channel activity [4]: remained unaffected
